Experimental data: patent US20260262643A1, “HERBICIDAL BENZOXAZINES” (FMC CORPORATION, priority 2022, published 2026)

Experiments:
green foxtail [1] = experiment: Test C preemergence; format: in vivo, Setaria viridis; settings: for Foxtail, Green plant response rating: preemergence; for Plant response rating, Foxtail, Green: Preemergence
Procedure, shortened: (§1)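 Visual injury score, 0–100 (100 = complete control), taken 10 days after treatment relative to untreated controls. Pre: directed spray onto soil over sown seeds. Post: foliar spray at one- to two-leaf stage, 2–10 cm. Solvent/surfactant formulation; loam–sand soil; greenhouse.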

sedge, umbrella = experiment: Test D flooded paddy test; format: in vivo, Cyperus difformis; settings: 250 g ai/ha, applied to paddy water, visual rating after 13 to 14 days, scale 0 to 100 (0 no effect, 100 complete control)
Procedure, shortened: (§2)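 Post-flood water application at the 2-leaf stage; 3 cm flood depth kept constant; visual control rating 0–100 after 13–14 days greenhouse growth.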

kochia [2] = experiment: Test C postemergence; format: in vivo, Bassia scoparia; settings: 10 days
Procedure, shortened: as §1

ragweed [3] = experiment: Test C postemergence; format: in vivo, Ambrosia artemisiifolia; settings: 10 days
Procedure, shortened: as §1

barnyardgrass [4] = experiment: Test C preemergence; format: in vivo, Echinochloa crusgalli; settings: for Barnyardgrass plant response rating: preemergence; for Plant response rating, Barnyardgrass: Preemergence
Procedure, shortened: as §1

green foxtail [5] = experiment: Test C postemergence; format: in vivo, Setaria viridis; settings: 10 days
Procedure, shortened: as §1

corn [6] = experiment: Test C preemergence; format: in vivo, Zea mays; settings: for Corn plant response rating: preemergence; for Plant response rating, Corn: Preemergence
Procedure, shortened: as §1

ryegrass, Italian [7] = experiment: Test C postemergence; format: in vivo, Lolium multiflorum; settings: 10 days
Procedure, shortened: as §1

kochia [8] = experiment: Test C preemergence; format: in vivo, Bassia scoparia; settings: for Kochia plant response rating: preemergence; for Plant response rating, Kochia: Preemergence
Procedure, shortened: as §1

soybean [9] = experiment: Test C preemergence; format: in vivo, Glycine max; settings: for Soybean plant response rating: preemergence; for Plant response rating, Soybean: Preemergence
Procedure, shortened: as §1

blackgrass [10] = experiment: Test C postemergence; format: in vivo, Alopecurus myosuroides; settings: 10 days
Procedure, shortened: as §1

wheat [11] = experiment: Test C preemergence; format: in vivo, Triticum aestivum; settings: for Wheat plant response rating: preemergence; for Plant response rating, Wheat: Preemergence
Procedure, shortened: as §1

barnyardgrass [12] = experiment: Test C postemergence; format: in vivo, Echinochloa crusgalli; settings: 10 days
Procedure, shortened: as §1

horseweed = experiment: Test C postemergence; format: in vivo, Erigeron canadensis; settings: 10 days
Procedure, shortened: as §1

blackgrass [13] = experiment: Test C preemergence; format: in vivo, Alopecurus myosuroides; settings: for Blackgrass plant response rating: preemergence; for Plant response rating, Blackgrass: Preemergence
Procedure, shortened: as §1

soybean [14] = experiment: Test C postemergence; format: in vivo, Glycine max; settings: 10 days
Procedure, shortened: as §1

corn [15] = experiment: Test C postemergence; format: in vivo, Zea mays; settings: 10 days
Procedure, shortened: as §1

pigweed, palmer [16] = experiment: Test C preemergence; format: in vivo, Amaranthus palmeri; settings: for Pigweed, Palmer plant response rating: preemergence; for Plant response rating, Pigweed, Palmer: Preemergence
Procedure, shortened: as §1

oat, wild [17] = experiment: Test C postemergence; format: in vivo, Avena fatua; settings: 10 days
Procedure, shortened: as §1

galium = experiment: Test C postemergence; format: in vivo, Galium aparine; settings: 10 days
Procedure, shortened: as §1

rice = experiment: Test D flooded paddy test; format: in vivo, Oryza sativa; settings: 250 g ai/ha, applied to paddy water, visual rating after 13 to 14 days, scale 0 to 100 (0 no effect, 100 complete control)
Procedure, shortened: as §2

ragweed [18] = experiment: Test C preemergence; format: in vivo, Ambrosia artemisiifolia; settings: for Ragweed plant response rating: preemergence; for Plant response rating, Ragweed: Preemergence
Procedure, shortened: as §1

wheat [19] = experiment: Test C postemergence; format: in vivo, Triticum aestivum; settings: 10 days
Procedure, shortened: as §1

oat, wild [20] = experiment: Test C preemergence; format: in vivo, Avena fatua; settings: for Oat, Wild plant response rating: preemergence; for Plant response rating, Oat, Wild: Preemergence
Procedure, shortened: as §1

ryegrass, Italian [21] = experiment: Test C preemergence; format: in vivo, Lolium multiflorum; settings: for Ryegrass, Italian plant response rating: preemergence; for Plant response rating, Ryegrass, Italian: Preemergence
Procedure, shortened: as §1

pigweed, palmer [22] = experiment: Test C postemergence; format: in vivo, Amaranthus palmeri; settings: 10 days
Procedure, shortened: as §1

ducksalad = experiment: Test D flooded paddy test; format: in vivo, Heteranthera limosa; settings: 250 g ai/ha, applied to paddy water, visual rating after 13 to 14 days, scale 0 to 100 (0 no effect, 100 complete control)
Procedure, shortened: as §2

barnyardgrass [23] = experiment: Test D flooded paddy test; format: in vivo, Echinochloa crus-galli; settings: 250 g ai/ha, applied to paddy water, visual rating after 13 to 14 days, scale 0 to 100 (0 no effect, 100 complete control)
Procedure, shortened: as §2

[24] = 500 g ai/ha, 0 to 100 scale (0 no effect, 100 complete control)
[25] = 125 g ai/ha, 0 to 100 scale, 0 no effect, 100 complete control
[26] = 500 g ai/ha, postemergence, 0 to 100 scale (0 no effect, 100 complete control)
[27] = Postemergence, 125 g ai/ha, 0 to 100 scale (0 no effect, 100 complete control)
[28] = 500 g ai/ha, visual rating after 10 days, 0 to 100 scale (0 no effect, 100 complete control)
[29] = Test C, 125 g ai/ha, 0 to 100 scale (0 no effect, 100 complete control)
[30] = 125 g ai/ha, postemergence, 0 to 100 scale, 0 no effect, 100 complete control
[31] = Postemergence, 500 g ai/ha, visual 0 to 100 scale (0 no effect, 100 complete control)

## Cc1ccc(-n2cnc(C#N)n2)cc1C(=O)N1C[C@H](C)Oc2c(Cl)cccc21 [Compound 363]
Green foxtail [1]; [24]
  Foxtail, Green plant response rating: 100
Green foxtail [1]; [25]
  Plant response rating, Foxtail, Green: 100
sedge, umbrella
  Plant response rating, Sedge, Umbrella (Flood): 0
Kochia [2]; [26]
  Plant response rating, Kochia: 80
Kochia [2]; [27]
  Plant response rating, Kochia: 40
Ragweed [3]; [26]
  Plant response rating, Ragweed: 50
Ragweed [3]; [27]
  Plant response rating, Ragweed: 0
Barnyardgrass [4]; [24]
  Barnyardgrass plant response rating: 60
Barnyardgrass [4]; [25]
  Plant response rating, Barnyardgrass: 40
Green foxtail [5]; [26]
  Plant response rating, Foxtail, Green: 50
Green foxtail [5]; [27]
  Plant response rating, Foxtail, Green: 30
Corn [6]; [24]
  Corn plant response rating: 0
Corn [6]; [25]
  Plant response rating, Corn: 0
ryegrass, Italian [7]; [26]
  Plant response rating, Ryegrass, Italian: 50
ryegrass, Italian [7]; [27]
  Plant response rating, Ryegrass, Italian: 40
Kochia [8]; [24]
  Kochia plant response rating: 0
Kochia [8]; [25]
  Plant response rating, Kochia: 0
Soybean [9]; [24]
  Soybean plant response rating: 0
Soybean [9]; [25]
  Plant response rating, Soybean: 20
Blackgrass [10]; [26]
  Plant response rating, Blackgrass: 60
Blackgrass [10]; [27]
  Plant response rating, Blackgrass: 30
Wheat [11]; [24]
  Wheat plant response rating: 0
Wheat [11]; [25]
  Plant response rating, Wheat: 0
Barnyardgrass [12]; [26]
  Plant response rating, Barnyardgrass: 50
Barnyardgrass [12]; [27]
  Plant response rating, Barnyardgrass: 20
horseweed; [26]
  Plant response rating, Horseweed: 0
horseweed; [27]
  Plant response rating, Horseweed: 0
Blackgrass [13]; [24]
  Blackgrass plant response rating: 30
Blackgrass [13]; [25]
  Plant response rating, Blackgrass: 0
Soybean [14]; [26]
  Plant response rating, Soybean: 100
Soybean [14]; [27]
  Plant response rating, Soybean: 100
Corn [15]; [26]
  Plant response rating, Corn: 10
Corn [15]; [27]
  Plant response rating, Corn: 10
pigweed, palmer [16]; [24]
  Pigweed, Palmer plant response rating: 100
pigweed, palmer [16]; [25]
  Plant response rating, Pigweed, Palmer: 80
oat, wild [17]; [26]
  Plant response rating, Oat, Wild: 20
oat, wild [17]; [27]
  Plant response rating, Oat, Wild: 0
galium; [26]
  Plant response rating, Galium: 100
galium; [27]
  Plant response rating, Galium: 100
rice
  Plant response rating, Rice (Flood): 0
Ragweed [18]; [24]
  Ragweed plant response rating: 80
Ragweed [18]; [25]
  Plant response rating, Ragweed: 20
Wheat [19]; [26]
  Plant response rating, Wheat: 20
Wheat [19]; [27]
  Plant response rating, Wheat: 20
oat, wild [20]; [24]
  Oat, Wild plant response rating: 0
oat, wild [20]; [25]
  Plant response rating, Oat, Wild: 0
ryegrass, Italian [21]; [24]
  Ryegrass, Italian plant response rating: 70
ryegrass, Italian [21]; [25]
  Plant response rating, Ryegrass, Italian: 30
pigweed, palmer [22]; [26]
  Plant response rating, Pigweed, Palmer: 90
pigweed, palmer [22]; [27]
  Plant response rating, Pigweed, Palmer: 70
ducksalad
  Plant response rating, Ducksalad (Flood): 0
Barnyardgrass [23]
  Plant response rating, Barnyardgrass (Flood): 0

## CCn1cnc(-c2cccc(C(=O)N3C[C@H](C)Oc4c(Cl)cccc43)c2)n1 [Compound 173]
Green foxtail [1]; [28]
  Plant response rating, Foxtail, Green: 0
Green foxtail [1]; [29]
  Foxtail, Green plant response rating: 0
sedge, umbrella
  Plant response rating, Sedge, Umbrella (Flood): 0
Kochia [2]; [30]
  Plant response rating, Kochia: 0
Kochia [2]; [31]
  Plant response rating, Kochia: 30
Ragweed [3]; [30]
  Plant response rating, Ragweed: 0
Ragweed [3]; [31]
  Plant response rating, Ragweed: 30
Barnyardgrass [4]; [28]
  Plant response rating, Barnyardgrass: 0
Barnyardgrass [4]; [29]
  Barnyardgrass plant response rating: 0
Green foxtail [5]; [30]
  Plant response rating, Foxtail, Green: 0
Green foxtail [5]; [31]
  Plant response rating, Foxtail, Green: 40
Corn [6]; [28]
  Plant response rating, Corn: 0
Corn [6]; [29]
  Corn plant response rating: 0
ryegrass, Italian [7]; [30]
  Plant response rating, Ryegrass, Italian: 0
ryegrass, Italian [7]; [31]
  Plant response rating, Ryegrass, Italian: 0
Kochia [8]; [28]
  Plant response rating, Kochia: 0
Kochia [8]; [29]
  Kochia plant response rating: 0
Soybean [9]; [28]
  Plant response rating, Soybean: 0
Soybean [9]; [29]
  Soybean plant response rating: 0
Blackgrass [10]; [30]
  Plant response rating, Blackgrass: 0
Blackgrass [10]; [31]
  Plant response rating, Blackgrass: 0
Wheat [11]; [28]
  Plant response rating, Wheat: 0
Wheat [11]; [29]
  Wheat plant response rating: 0
Barnyardgrass [12]; [30]
  Plant response rating, Barnyardgrass: 10
Barnyardgrass [12]; [31]
  Plant response rating, Barnyardgrass: 10
horseweed; [30]
  Plant response rating, Horseweed: 10
horseweed; [31]
  Plant response rating, Horseweed: 10
Blackgrass [13]; [28]
  Plant response rating, Blackgrass: 0
Blackgrass [13]; [29]
  Blackgrass plant response rating: 0
Soybean [14]; [30]
  Plant response rating, Soybean: 0
Soybean [14]; [31]
  Plant response rating, Soybean: 30
Corn [15]; [30]
  Plant response rating, Corn: 0
Corn [15]; [31]
  Plant response rating, Corn: 0
pigweed, palmer [16]; [28]
  Plant response rating, Pigweed, Palmer: 0
pigweed, palmer [16]; [29]
  Pigweed, Palmer plant response rating: 0
oat, wild [17]; [30]
  Plant response rating, Oat, Wild: 0
oat, wild [17]; [31]
  Plant response rating, Oat, Wild: 0
galium; [30]
  Plant response rating, Galium: 20
galium; [31]
  Plant response rating, Galium: 50
rice
  Plant response rating, Rice (Flood): 0
Ragweed [18]; [28]
  Plant response rating, Ragweed: 60
Ragweed [18]; [29]
  Ragweed plant response rating: 30
Wheat [19]; [30]
  Plant response rating, Wheat: 0
Wheat [19]; [31]
  Plant response rating, Wheat: 0
oat, wild [20]; [28]
  Plant response rating, Oat, Wild: 0
oat, wild [20]; [29]
  Oat, Wild plant response rating: 0
ryegrass, Italian [21]; [28]
  Plant response rating, Ryegrass, Italian: 50
ryegrass, Italian [21]; [29]
  Ryegrass, Italian plant response rating: 20
pigweed, palmer [22]; [30]
  Plant response rating, Pigweed, Palmer: 0
pigweed, palmer [22]; [31]
  Plant response rating, Pigweed, Palmer: 20
ducksalad
  Plant response rating, Ducksalad (Flood): 0
Barnyardgrass [23]
  Plant response rating, Barnyardgrass (Flood): 0
